A short description of data set [1]: Lipophilicity, octanol-water partition coefficient by shake flask method. It counts as physicochemical. The following applies: 22° C., P=log Ax/(A0−Ax). Here is the method:
Lipophilicity of the identified EGCG derivatives was determined as octanol-water partition coefficient (P) by a shake flask method. Briefly, a flask containing a mixture of octanol (100 ml) and deionized water (100 ml) was shaken in a shaking waterbath at room temperature (22° C.) for 24 hours. The content was then allowed to stand for 24 hours for separation into two phases. Test compounds (0.2 μmol) were dissolved in 5 ml of the upper phase (pre-saturated octanol), and the absorbance (A0) was read at 280 nm. A blank with no sample was prepared. Five milliliters of the bottom phase (pre-saturated water) were added afterwards, and the mixtures were vortexed for 1 min and allowed to stand for 24 hours for separation. Absorbance (Ax) of the upper phase in the vials was measured and octanol-water partition coefficient (P) calculated using the following equation: P=log Ax/(A0−Ax), where blank-corrected absorbance was used.

The target of the next data set is HCV NS3/4A protease (Hepatitis C virus genotype 1a, UniProt P27958). In words: Inhibition against HCV protease. The data set is classed as biochemical. The following applies: for IC50: HCV NS3/4A protease 0.5 μg/ml, 30 min, room temperature; for HCV protease inhibitory activity relative to embelin: fold stronger than embelin. Here is the method: An aliquot (2 μl) of test compounds dissolved in DMSO was added to each well of a 384-well black Assay plate, followed by addition of 8 μl of HCV NS3/4A protease solution (0.5 μg/ml). The reaction was initiated by adding 10 μl of freshly diluted substrate (100× dilution of a DMSO stocking solution). The mixture was incubated at room temperature for 30 min, and the fluorescence intensity was measured at 485 nm for excitation and 535 nm for emission by a TECAN GENios plate reader. […] All fluorescence values were corrected with a substrate blank. Samples were assayed at different concentrations to plot a concentration VS. inhibition percentage curve, and IC50 values were obtained from the curve for each sample. A known HCV protease inhibitor, embelin, was used as a reference. Discussion

Data set [2] is described as follows: Incorporation into liposomes. The data set is classed as physicochemical. The following applies: 500 μM in ethanol added to MLV, 20 min, 37° C. Here is the method: Phosphotidylcholine (PC) (25 mg) was dissolved in a small amount of chloroform in a round bottom flask, followed by evaporation of the solvent with a rotary evaporator to obtain a thin layer film on the inner surface of the flask. Trace solvent was removed by nitrogen flush. An aqueous glucose solution (300 mM, 5 ml) was added to the flask, and the content was thoroughly vortexed and sonicated in an ultrosonicator, followed by a repeated freeze-thaw processing (4 times). The liposomal solution was diluted with 45 ml of phosphate buffer saline (PBS, 50 mM, pH7.4) and transferred into a centrifuge tube. The content was centrifuged at 13000 g for 5 min to remove the untrapped glucose. The sediment was re-suspended in 25 ml of PBS to obtain a final liposomal MLV. An aliquot (0.9 ml) of the above MLV was transferred to an Eppendorf tube containing 0.1 ml of test compounds (500 μM in ethanol) or ethanol blank. The content was mixed by vortexing and incubated for 20 min at 37° C. After incubation the mixture was centrifuged at 13000 g for 5 min, and the sediment was washed with 1 ml of 10% ethanol (in PBS), followed by a second centrifugation. The supernatants were combined and absorbance measured at 280 nm. A series of standard solutions in 10% ethanol at different concentrations was prepared for each test compound and their absorbance measured at 280 nm to construct a standard curve (absorbance VS. concentration). The un-incorporated test compounds in the supernatant were quantified using their corresponding standard curve. Percentage incorporation of each compound into the liposomes was calculated according to the following equation: % incorporation=100×(1−amount un-incorporated/amount added)=100×(1−C×2/50) where, C is the concentration of test compounds read from the standard curve. Discussion

Marks after values point to notes of the source that are not given here.

Chain of HCV NS3/4A protease (P27958 1027-1657): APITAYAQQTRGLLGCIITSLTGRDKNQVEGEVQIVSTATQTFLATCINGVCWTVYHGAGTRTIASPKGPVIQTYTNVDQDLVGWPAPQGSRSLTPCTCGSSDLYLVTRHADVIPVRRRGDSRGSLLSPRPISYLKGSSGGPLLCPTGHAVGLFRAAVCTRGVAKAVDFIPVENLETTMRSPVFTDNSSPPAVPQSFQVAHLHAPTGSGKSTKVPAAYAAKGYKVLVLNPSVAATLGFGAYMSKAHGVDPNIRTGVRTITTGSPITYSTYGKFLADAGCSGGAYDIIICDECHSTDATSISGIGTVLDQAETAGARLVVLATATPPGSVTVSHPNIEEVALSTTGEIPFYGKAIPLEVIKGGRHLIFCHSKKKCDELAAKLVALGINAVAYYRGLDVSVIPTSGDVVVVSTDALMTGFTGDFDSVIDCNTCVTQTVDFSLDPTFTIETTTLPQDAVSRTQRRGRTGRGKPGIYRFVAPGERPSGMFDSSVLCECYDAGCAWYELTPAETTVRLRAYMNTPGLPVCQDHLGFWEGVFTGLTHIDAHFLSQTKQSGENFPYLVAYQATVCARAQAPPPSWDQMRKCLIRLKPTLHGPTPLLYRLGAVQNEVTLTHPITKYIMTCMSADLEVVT
Chain of HCV NS3/4A protease (P27958 1658-1711): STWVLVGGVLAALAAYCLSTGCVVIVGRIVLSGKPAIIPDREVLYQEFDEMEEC

The compound `CCCCCCCCCCCCCCCCCC(=O)Oc1cc(C(=O)OC2Cc3c(O)cc(O)cc3OC2c2cc(OC(=O)CCCCCCCCCCCCCCCCC)c(O)c(OC(=O)CCCCCCCCCCCCCCCCC)c2)cc(OC(=O)CCCCCCCCCCCCCCCCC)c1O` (stereo not drawn) [Compound 1a, EGCG stearate] gave a logP in data set [1] of 1.42 ± 0.02. Also, on HCV NS3/4A protease, half-maximal inhibition (IC50) required 130 nM and the “HCV protease inhibitory activity relative to embelin” value was “approximately 80 fold”. For the same compound, the “% incorporation into liposomes” value in data set [2] turned out to be 91.19%.
For `CCC=CCC=CCC=CCC=CCC=CCCCC(=O)Oc1cc(C(=O)OC2Cc3c(O)cc(O)cc3OC2c2cc(OC(=O)CCCC=CCC=CCC=CCC=CCC=CCC)c(O)c(OC(=O)CCCC=CCC=CCC=CCC=CCC=CCC)c2)cc(OC(=O)CCCC=CCC=CCC=CCC=CCC=CCC)c1O` (stereo not drawn) [Compound 1b], in data set [1], the “Lipophilicity (partition coefficient, P)” value is given as 1.10 ± 0.06 ^b. Further, on HCV NS3/4A protease, the IC50 was 6 nM and the “HCV protease inhibitory activity relative to embelin” value stood at 1700 fold. Also, in data set [2], the “% incorporation into liposomes” value is 71.81%.
As to `CCC=CCC=CCC=CCC=CCC=CCC=CCCC(=O)Oc1cc(C(=O)OC2Cc3c(O)cc(O)cc3OC2c2cc(OC(=O)CCC=CCC=CCC=CCC=CCC=CCC=CCC)c(O)c(OC(=O)CCC=CCC=CCC=CCC=CCC=CCC=CCC)c2)cc(OC(=O)CCC=CCC=CCC=CCC=CCC=CCC=CCC)c1O` (stereo not drawn) [Compound 1c], the “Lipophilicity (partition coefficient, P)” value in data set [1] is recorded as 1.03 ± 0.10 ^b. For the same compound, on HCV NS3/4A protease, the IC50 amounted to 6 nM and the “HCV protease inhibitory activity relative to embelin” value is listed as 1700 fold. Moreover, in data set [2], the “% incorporation into liposomes” value is 80.91%.
As to `O=C(O[C@@H]1Cc2c(O)cc(O)cc2O[C@@H]1c1cc(O)c(O)c(O)c1)c1cc(O)c(O)c(O)c1` [EGCG, Epigallocatechin gallate, reference compound], the logP in data set [1] was found to be 0.48 ± 0.01. Besides, at HCV NS3/4A protease, the IC50 is > 200000 nM. Moreover, in data set [2], the “% incorporation into liposomes” value is on record as 65.17%.

(Values after US9018248B2, “Fatty acid derivatives of catechins and methods of their use” (Genesis Group Inc., priority 2010, dated 2015).)
